Results reported in PubChem BioAssay (NCI).
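Grown in 96-well plates, cells were treated for 48 hours with each compound at five concentrations. Insufficient inhibition: endpoint recorded as highest concentration tested. Abbreviation: GI50, concentration required for 50% inhibition of growth. TGI: concentration producing complete growth inhibition.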

Experiments:
Experiment in all cases: NCI anticancer screen, dose series, 48 h
COLO 205 colon = system: COLO 205 colon
RPMI-8226 leukemia = system: RPMI-8226 leukemia
UO-31 renal = system: UO-31 renal
SW-620 colon = system: SW-620 colon
EKVX NSCLC = system: EKVX NSCLC
T-47D breast = system: T-47D breast
MDA-MB-231 breast = system: MDA-MB-231 breast
ACHN renal = system: ACHN renal
SK-OV-3 ovarian = system: SK-OV-3 ovarian
RXF 393 renal = system: RXF 393 renal
NCI-H522 lung = system: NCI-H522 lung
A549 NSCLC = system: A549 NSCLC
OVCAR-8 ovarian = system: OVCAR-8 ovarian
LOX IMVI melanoma = system: LOX IMVI melanoma
IGROV1 ovarian = system: IGROV1 ovarian
TK-10 renal = system: TK-10 renal
OVCAR-4 ovarian = system: OVCAR-4 ovarian
NCI/ADR-RES ovarian = system: NCI/ADR-RES ovarian
DU-145 prostate = system: DU-145 prostate
NCI-H23 lung = system: NCI-H23 lung
K-562 leukemia = system: K-562 leukemia
SK-MEL-28 melanoma = system: SK-MEL-28 melanoma
OVCAR-3 ovarian = system: OVCAR-3 ovarian
HOP-62 NSCLC = system: HOP-62 NSCLC
HCC-2998 colon = system: HCC-2998 colon
HS 578T breast = system: HS 578T breast
HCT-15 colon = system: HCT-15 colon
HCT-116 colon = system: HCT-116 colon
SF-295 CNS = system: SF-295 CNS
SN12C renal = system: SN12C renal
PC-3 prostate = system: PC-3 prostate
MDA-MB-435 = system: MDA-MB-435
A498 renal = system: A498 renal
KM12 colon = system: KM12 colon
SK-MEL-5 melanoma = system: SK-MEL-5 melanoma
M14 melanoma = system: M14 melanoma
CAKI-1 renal = system: CAKI-1 renal
MCF7 breast = system: MCF7 breast
MOLT-4 leukemia = system: MOLT-4 leukemia
SNB-75 CNS = system: SNB-75 CNS
NCI-H226 lung = system: NCI-H226 lung
U251 CNS = system: U251 CNS
BT-549 breast = system: BT-549 breast
SF-539 CNS = system: SF-539 CNS
SK-MEL-2 melanoma = system: SK-MEL-2 melanoma
SNB-19 CNS = system: SNB-19 CNS
786-0 renal = system: 786-0 renal
MALME-3M melanoma = system: MALME-3M melanoma
SF-268 CNS = system: SF-268 CNS
HT29 colon = system: HT29 colon
HL-60(TB) leukemia = system: HL-60(TB) leukemia
CCRF-CEM leukemia = system: CCRF-CEM leukemia
HOP-92 NSCLC = system: HOP-92 NSCLC
NCI-H460 lung = system: NCI-H460 lung
SR leukemia = system: SR leukemia

COC(=O)CCCCN=Cc1c(O)c(O)c(C(C)C)c2cc(C)c(-c3c(C)cc4c(C(C)C)c(O)c(O)c(C=NCCCCC(=O)OC)c4c3O)c(O)c12
GI50 (COLO 205 colon): 850 nM | TGI (COLO 205 colon): 2440 nM | GI50 (RPMI-8226 leukemia): 616 nM | TGI (RPMI-8226 leukemia): 20.3 µM | GI50 (UO-31 renal): 923 nM | TGI (UO-31 renal): 26.5 µM | GI50 (SW-620 colon): 1270 nM | TGI (SW-620 colon): > 32.5 µM | GI50 (EKVX NSCLC): 924 nM | TGI (EKVX NSCLC): > 32.5 µM | GI50 (T-47D breast): 692 nM | TGI (T-47D breast): 8.04 µM | GI50 (MDA-MB-231 breast): 1080 nM | TGI (MDA-MB-231 breast): 12.1 µM | GI50 (ACHN renal): 1150 nM | TGI (ACHN renal): > 32.5 µM | GI50 (SK-OV-3 ovarian): 976 nM | TGI (SK-OV-3 ovarian): 3.08 µM | GI50 (RXF 393 renal): 596 nM | TGI (RXF 393 renal): 3.18 µM | GI50 (NCI-H522 lung): 838 nM | TGI (NCI-H522 lung): 4.43 µM | GI50 (A549 NSCLC): 979 nM | TGI (A549 NSCLC): > 32.5 µM | GI50 (OVCAR-8 ovarian): 959 nM | TGI (OVCAR-8 ovarian): > 32.5 µM | GI50 (LOX IMVI melanoma): 822 nM | TGI (LOX IMVI melanoma): 2430 nM | GI50 (IGROV1 ovarian): 1410 nM | TGI (IGROV1 ovarian): > 32.5 µM | GI50 (TK-10 renal): 1050 nM | TGI (TK-10 renal): > 32.5 µM | GI50 (OVCAR-4 ovarian): 886 nM | TGI (OVCAR-4 ovarian): > 32.5 µM | GI50 (NCI/ADR-RES ovarian): 2320 nM | TGI (NCI/ADR-RES ovarian): > 32.5 µM | GI50 (DU-145 prostate): 1390 nM | TGI (DU-145 prostate): > 32.5 µM | GI50 (NCI-H23 lung): 1070 nM | TGI (NCI-H23 lung): 27 µM | GI50 (K-562 leukemia): 640 nM | TGI (K-562 leukemia): 4.09 µM | GI50 (SK-MEL-28 melanoma): 1770 nM | TGI (SK-MEL-28 melanoma): > 32.5 µM | GI50 (OVCAR-3 ovarian): 1020 nM | TGI (OVCAR-3 ovarian): > 32.5 µM | GI50 (HOP-62 NSCLC): 1220 nM | TGI (HOP-62 NSCLC): 9.21 µM | GI50 (HCC-2998 colon): 1190 nM | TGI (HCC-2998 colon): > 32.5 µM | GI50 (HS 578T breast): 1490 nM | TGI (HS 578T breast): > 32.5 µM | GI50 (HCT-15 colon): 1060 nM | TGI (HCT-15 colon): > 32.5 µM | GI50 (HCT-116 colon): 904 nM | TGI (HCT-116 colon): 4.98 µM | GI50 (SF-295 CNS): 830 nM | TGI (SF-295 CNS): 7.92 µM | GI50 (SN12C renal): 1140 nM | TGI (SN12C renal): > 32.5 µM | GI50 (PC-3 prostate): 787 nM | TGI (PC-3 prostate): > 32.5 µM | GI50 (MDA-MB-435): 1460 nM | TGI (MDA-MB-435): > 32.5 µM | GI50 (A498 renal): 1790 nM | TGI (A498 renal): > 32.5 µM | GI50 (KM12 colon): 799 nM | TGI (KM12 colon): > 32.5 µM | GI50 (SK-MEL-5 melanoma): 1830 nM | TGI (SK-MEL-5 melanoma): 8.75 µM | GI50 (M14 melanoma): 1230 nM | TGI (M14 melanoma): 13.5 µM | GI50 (CAKI-1 renal): 1170 nM | TGI (CAKI-1 renal): > 32.5 µM | GI50 (MCF7 breast): 917 nM | TGI (MCF7 breast): 6.26 µM | GI50 (MOLT-4 leukemia): 783 nM | TGI (MOLT-4 leukemia): 19.2 µM | GI50 (SNB-75 CNS): 2600 nM | TGI (SNB-75 CNS): > 32.5 µM | GI50 (NCI-H226 lung): 1300 nM | TGI (NCI-H226 lung): 8.38 µM | GI50 (U251 CNS): 580 nM | TGI (U251 CNS): 4.05 µM | GI50 (BT-549 breast): 1500 nM | TGI (BT-549 breast): 23.8 µM | GI50 (SF-539 CNS): 1530 nM | TGI (SF-539 CNS): > 32.5 µM | GI50 (SK-MEL-2 melanoma): 1380 nM | TGI (SK-MEL-2 melanoma): > 32.5 µM | GI50 (SNB-19 CNS): 713 nM | TGI (SNB-19 CNS): > 32.5 µM | GI50 (786-0 renal): 1340 nM | TGI (786-0 renal): 15.1 µM | GI50 (MALME-3M melanoma): 1470 nM | TGI (MALME-3M melanoma): > 32.5 µM | GI50 (SF-268 CNS): 1340 nM | TGI (SF-268 CNS): > 32.5 µM | GI50 (HT29 colon): 978 nM | TGI (HT29 colon): 17.1 µM | GI50 (HL-60(TB) leukemia): 1130 nM | TGI (HL-60(TB) leukemia): 22.8 µM | GI50 (CCRF-CEM leukemia): 746 nM | TGI (CCRF-CEM leukemia): 17.5 µM | GI50 (HOP-92 NSCLC): 782 nM | TGI (HOP-92 NSCLC): 2640 nM | GI50 (NCI-H460 lung): 1040 nM | TGI (NCI-H460 lung): 9.48 µM | GI50 (SR leukemia): 917 nM | TGI (SR leukemia): 5.72 µM
